Measured values from patent publication US20250320184A1 (SIRONAX LTD., priority 2022, published 2025).

target: T1, SARM1 (50-724) (Homo sapiens, UniProt Q6SZW1); experiment: biochemical
T1 sequence (Q6SZW1 50-724): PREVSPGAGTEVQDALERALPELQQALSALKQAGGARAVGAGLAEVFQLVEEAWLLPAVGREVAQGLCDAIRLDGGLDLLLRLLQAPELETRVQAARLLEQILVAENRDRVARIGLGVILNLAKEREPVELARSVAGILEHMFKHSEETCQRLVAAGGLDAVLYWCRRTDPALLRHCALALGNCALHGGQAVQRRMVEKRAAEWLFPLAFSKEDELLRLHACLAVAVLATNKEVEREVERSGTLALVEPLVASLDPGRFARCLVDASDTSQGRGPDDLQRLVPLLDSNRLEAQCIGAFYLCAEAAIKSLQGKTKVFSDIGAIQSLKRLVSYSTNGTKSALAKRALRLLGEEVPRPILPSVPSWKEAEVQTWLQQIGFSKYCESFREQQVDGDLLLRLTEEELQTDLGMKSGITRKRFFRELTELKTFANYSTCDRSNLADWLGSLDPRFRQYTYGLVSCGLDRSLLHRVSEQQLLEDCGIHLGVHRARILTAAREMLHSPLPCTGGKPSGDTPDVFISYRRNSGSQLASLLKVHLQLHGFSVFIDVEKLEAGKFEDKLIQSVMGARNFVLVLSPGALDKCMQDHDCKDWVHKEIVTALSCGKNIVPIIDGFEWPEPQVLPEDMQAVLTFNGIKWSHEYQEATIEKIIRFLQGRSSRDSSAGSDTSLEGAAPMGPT
Protocol: An enzymatic assay was performed in a 384-well plate using Dulbecco's phosphate-buffered saline (PBS) as the reaction buffer. […] The reaction was initiated by adding a mixture of 200 μM nicotinamide mononucleotide (NMN) as activator and 100 μM NAD^+ as substrate. After 1 h of incubation at room temperature, the reaction was terminated with 10 times volume of 70% acetonitrile, then centrifuged at 3800 rpm for 10 min.

| Compound | IC50 [nM] |
| --- | --- |
| Cc1c(F)cccc1S(=O)(=O)Nc1cccc(-c2ccccn2)c1 [Example 160, 3-fluoro-2-methyl-N-(3-(pyridin-2-yl)phenyl)benzenesulfonamide] | 500 to 1000 |
| C=CCCC(Nc1ccc2c(c1)C(=O)NCC2)c1cc(C)cc(F)c1 (racemic) [Example 145, 7-((1-(3-fluoro-5-methylphenyl)pent-4-en-1-yl)amino)-3,4-dihydroisoquinolin-1(2H)-one] | 500 to 1000 |
| Cn1ncc2cc(NS(=O)(=O)c3cccc(Cl)c3Cl)ccc21 [Compound 79, 2,3-dichloro-N-(1-methyl-1H-indazol-5-yl)benzenesulfonamide] | 100 to 500 |
| Cc1c(F)cccc1S(=O)(=O)Nc1ccc2cnn(C(=O)OC(C)(C)C)c2c1 [Compound 24, tert-butyl 6-((3-fluoro-2-methylphenyl)sulfonamido)-1H-indazole-1-carboxylate] | > 1000 |
| Cc1c(F)cccc1S(=O)(=O)Nc1cccc(N2CCNC2=O)c1 [Compound 46, 3-fluoro-2-methyl-N-(3-(2-oxoimidazolidin-1-yl)phenyl)benzenesulfonamide] | > 1000 |
| CC1CCCN(S(=O)(=O)Nc2ccc3c(c2)C(=O)NCC3)C1 (racemic) [Example 169, 3-methyl-N-(1-oxo-1,2,3,4-tetrahydroisoquinolin-7-yl)piperidine-1-sulfonamide] | > 1000 |
| Cc1c(F)cccc1S(=O)(=O)Nc1ccc2scnc2c1 [Compound 32, N-(benzo[d]thiazol-5-yl)-3-fluoro-2-methylbenzenesulfonamide] | 100 to 500 |
| CC(Nc1ccc2c(c1)C(=O)NCC2)c1cnc(Cl)c(Cl)c1 (racemic) [Example 119, 7-((1-(5,6-dichloropyridin-3-yl)ethyl)amino)-3,4-dihydroisoquinolin-1(2H)-one] | 500 to 1000 |
| Cc1c(F)cccc1S(=O)(=O)Nc1ccc2c(c1)CCCC2 [Compound 14, 3-fluoro-2-methyl-N-(5,6,7,8-tetrahydronaphthalen-2-yl)benzenesulfonamide] | 500 to 1000 |
| Cc1c(F)cccc1S(=O)(=O)Nc1ccc2c(c1)NC(=O)CC2 [Compound 3, 3-fluoro-2-methyl-N-(2-oxo-1,2,3,4-tetrahydroquinolin-7-yl)benzenesulfonamide] | 100 to 500 |
| O=C1NCCc2ccc(NS(=O)(=O)c3ccc(F)c(F)c3F)cc21 [Compound 36, 2,3,4-trifluoro-N-(1-oxo-1,2,3,4-tetrahydroisoquinolin-7-yl)benzenesulfonamide] | 100 to 500 |
| Cc1c(Cl)c(C(C)Nc2ccc3cc[nH]c(=O)c3c2)nn1CC(F)(F)F (racemic) [Compound 257, 7-((1-(4-chloro-5-methyl-1-(2,2,2-trifluoroethyl)-1H-pyrazol-3-yl)ethyl)amino)isoquinolin-1(2H)-one] | < 100 |
| CCC(Nc1ccc2c(c1)C(=O)NCC2)c1cc(C)cc(F)c1 (racemic) [Example 109, 7-((1-(3-fluoro-5-methylphenyl)propyl)amino)-3,4-dihydroisoquinolin-1(2H)-one] | 100 to 500 |
| O=S(=O)(Nc1ccc2c(Cl)n[nH]c2c1)c1cccc(Cl)c1Cl [Compound 78, 2,3-dichloro-N-(3-chloro-1H-indazol-6-yl)benzenesulfonamide] | < 100 |
| O=C1NCCc2ccc(NS(=O)(=O)c3ccc(F)cc3F)cc21 [Example 14A, 2,4-difluoro-N-(1-oxo-1,2,3,4-tetrahydroisoquinolin-7-yl)benzenesulfonamide] | > 1000 |
| O=C1NCCc2ccc(NS(=O)(=O)N3CCCC4CCCC43)cc21 (mixture of isomers) [Example 171] | 100 to 500 |

The remaining lines, values ahead:

| IC50 [nM] | Compound |
| --- | --- |
| < 100 | CC1(C)CNC(=O)c2cc(NS(=O)(=O)c3cccc(Cl)c3Cl)ccc21 [Compound 265, 2,3-dichloro-N-(4,4-dimethyl-1-oxo-1,2,3,4-tetrahydroisoquinolin-7-yl)benzenesulfonamide] |
| < 100 | Cc1n[nH]c(=O)c2cc(N[C@@H](C)c3c(Cl)ccc(F)c3Cl)ccc12 (single isomer, unassigned) [Example 237] |
| < 100 | O=c1[nH]cc(Cl)c2ccc(NS(=O)(=O)c3c(Cl)ccc(Cl)c3Cl)cc12 [Compound 197, 2,3,6-trichloro-N-(4-chloro-1-oxo-1,2-dihydroisoquinolin-7-yl)benzenesulfonamide] |
| < 100 | Cc1n[nH]c(=O)c2cc(NC(C)c3nc(Cl)c(Cl)s3)ccc12 (racemic) [Example 223, 7-((1-(4,5-dichlorothiazol-2-yl)ethyl)amino)-4-methylphthalazin-1(2H)-one] |
| < 100 | CC(Nc1ccc2nc[nH]c(=O)c2n1)c1c(Cl)ccc(F)c1Cl (single isomer, unassigned) [Compound 382] |
| < 100 | Cc1c2ccc(NC(C)c3nc(Cl)c(Cl)s3)cc2nn1C1CC(O)C1 (mixture of isomers) [Compound 339, 3-(6-((1-(4,5-dichlorothiazol-2-yl)ethyl)amino)-3-methyl-2H-indazol-2-yl)cyclobutan-1-ol] |
| < 100 | CC(Nc1ccc2nc[nH]c(=O)c2c1)c1ccc(F)c(Cl)c1Cl (racemic) [Example 156, 6-[1-(2,3-dichloro-4-fluoro-phenyl)ethylamino]-3H-quinazolin-4-one] |
| < 100 | CC(Nc1ccc2cn[nH]c(=O)c2c1)c1c(Cl)ccc(F)c1Cl (stereo not shown) [Example 199] |
| < 100 | CC(Nc1ccc2c(c1)NC(=O)C21CC1)c1nc(Cl)c(Cl)s1 (racemic) [Example 244, 6′-((1-(4,5-dichlorothiazol-2-yl)ethyl)amino)spiro[cyclopropane-1,3′-indolin]-2′-one] |
| < 100 | Cc1c(Cl)cc(F)cc1S(=O)(=O)Nc1ccc2cc[nH]c(=O)c2c1 [Compound 45, 3-chloro-5-fluoro-2-methyl-N-(1-oxo-1,2-dihydroisoquinolin-7-yl)benzenesulfonamide] |
| < 100 | CC(Nc1ccc2cc[nH]c(=O)c2c1)c1csc(Cl)c1Cl (racemic) [Compound 353, 7-((1-(4,5-dichlorothiophen-3-yl)ethyl)amino)isoquinolin-1(2H)-one] |
| < 100 | CC(Nc1ccc2nc[nH]c(=O)c2c1)c1c(Cl)ccc(F)c1Cl (racemic) [Example 193, 6-((1-(2,6-dichloro-3-fluorophenyl)ethyl)amino)quinazolin-4(3H)-one] |
| < 100 | Cc1n[nH]c2cc(NC(C)c3nc(Cl)c(Cl)s3)ccc12 (racemic) [Compound 261, N-(1-(4,5-dichlorothiazol-2-yl)ethyl)-3-methyl-1H-indazol-6-amine] |
| < 100 | O=c1[nH]ccc2ccc(NS(=O)(=O)c3ccc(F)c(Cl)c3Cl)cc12 [Compound 69, 2,3-dichloro-4-fluoro-N-(1-oxo-1,2-dihydroisoquinolin-7-yl)benzenesulfonamide] |
| < 100 | Cc1nn(C(=O)c2ccncc2)c2cc(NC(C)c3nc(Cl)c(Cl)s3)ccc12 (racemic) [Compound 331, (6-((1-(4,5-dichlorothiazol-2-yl)ethyl)amino)-3-methyl-1H-indazol-1-yl)(pyridin-4-yl)methanone] |
| < 100 | Cc1ccc(Cl)c(S(=O)(=O)Nc2ccc3c(c2)C(=O)NCC3)c1Cl [Compound 2, 2,6-dichloro-3-methyl-N-(1-oxo-3,4-dihydro-2H-isoquinolin-7-yl)benzenesulfonamide] |
| < 100 | Cc1c2ccc(NC(C)c3nc(Cl)c(Cl)s3)cc2nn1[C@@H]1CC[C@@H](O)C1 (stereo in doubt) [Compound 335, 3-(6-((1-(4,5-dichlorothiazol-2-yl)ethyl)amino)-3-methyl-2H-indazol-2-yl)cyclopentan-1-ol] |
| < 100 | CC1(C)CNc2cc(NS(=O)(=O)c3cccc(Cl)c3Cl)ccc21 [Compound 219, 2,3-dichloro-N-(3,3-dimethylindolin-6-yl)benzenesulfonamide] |
| < 100 | CC1(C)C(=O)Nc2cc(NC(CCO)c3nc(Cl)c(Cl)s3)ccc21 (racemic) [Example 292, 6-((1-(4,5-dichlorothiazol-2-yl)-3-hydroxypropyl)amino)-3,3-dimethylindolin-2-one] |
| < 100 | CC(Nc1ccc2cc[nH]c(=O)c2c1)c1nn(C2CC2)c(Cl)c1Cl (racemic) [Compound 321, 7-((1-(4,5-dichloro-1-cyclopropyl-1H-pyrazol-3-yl)ethyl)amino)isoquinolin-1(2H)-one] |
| < 100 | CC(Nc1ccc2cc[nH]c(=O)c2c1)c1cc(F)cc(F)c1Cl (racemic) [Example 137, 7-((1-(2-chloro-3,5-difluorophenyl)ethyl)amino)isoquinolin-1(2H)-one] |
| < 100 | CC(Nc1ccc2cc[nH]c(=O)c2c1)c1nc(Cl)c(Cl)s1 (racemic) [Compound 187, 7-((1-(4,5-dichlorothiazol-2-yl)ethyl)amino)isoquinolin-1(2H)-one] |
| < 100 | Cc1c(Br)cccc1S(=O)(=O)Nc1ccc2c(c1)C(=O)NCCC2 [Compound 40, 3-bromo-2-methyl-N-(1-oxo-2,3,4,5-tetrahydro-1H-benzo[c]azepin-8-yl)benzenesulfonamide] |
| < 100 | Cc1c(Cl)cccc1S(=O)(=O)Nc1ccc2c(c1)C(=O)NCCC2 [Compound 39, 3-chloro-2-methyl-N-(1-oxo-2,3,4,5-tetrahydro-1H-benzo[c]azepin-8-yl)benzenesulfonamide] |
